From patent publication US20250288572A1, “COMPOSITIONS AND METHODS FOR TREATING PULMONARY VASCULAR DISEASE” (UNIVERSITY OF PITTSBURGH-OF THE COMMONWEALTH SYSTEM OF …, priority 2022, published 2025) come the findings set out here.

Entries after “also recorded” stand apart in the source; their conditions may differ.

Format in all cases: cell-based, human
One experiment has as its system ISCU. The experiment can be described thus: Immunoblot and densitometry of ISCU and GSTP1 in PAECs. The protocol:
(§1) BRD2889 (1 uM) vs. vehicle control were added, as indicated, and placed into a hypoxia chamber for 24 h. The hypoxia chamber (modular incubator chamber) was obtained from Billups-Rothenberg Inc. (Del Mar, Cali) and placed in regulated CO2 incubator at 37° C.
Immunoblot and densitometry: Cells were lysed in RIPA buffer (Sigma) along with 1× protease inhibitor cocktail (Sigma). Protein lysate was resolved by gradient 4%-15% SDS-PAGE gels and transferred onto a 0.2 μm PVDF membrane (Bio-Rad). Membranes were blocked in 5% non-fat milk in 1×PBST buffer for one hour at room temperature. Later, they were incubated in the presence of the primary antibody overnight at 4° C., and then appropriate HRP-conjugated secondary antibodies (Life Technologies). The following antibodies were used: human LGALS8 (AF1305, RnD Systems), mouse/rat Lgals8 ([…], Abcam), pSTAT1 (ab29045, Abcam) and STAT1 (ab47425, Abcam), GSTP1 (ab153949, Abcam), ISCU (14812-1-AP, Pointech), Glutathione (ab19534, Abcam), HIF2A (NB100-122, Novous), α-Tubulin (CP06, Millipore sigma), and ACTB (sc-47778, Santa Cruz). The immunoreactive bands were visualized with the Chemidoc XRS+ system (Bio-Rad) using SuperSignal West Femto chemiluminescent substrates (Thermo Fisher Scientific). The images were later quantified using AlphaEaseFC software (Alpha Innotech).

The test system of experiment [1] is PAECs. The experiment can be described thus: RT-qPCR gene expression in PAECs. The procedure: (§2) The hypoxia chamber (modular incubator chamber) was obtained from Billups-Rothenberg Inc. (Del Mar, Cali) and placed in regulated CO2 incubator at 37° C.
(§3) RT-qPCR analysis: Cells were lysis in 1 ml of QiaZol reagent (Qiagen). Total RNA content was extracted using the RNeasy kit (Qiagen), according to the manufacturer's instructions. Total RNA concentration was determined using a BioTek Synergy multimode plate reader. Messenger RNAs were reverse transcribed to generate cDNA using the Multiscript RT kit (Thermo Fisher Scientific). cDNA for specific gene targets was amplified and quantified via fluorescently-labeled Taqman primer sets and Taqman fast advanced master mix (Thermo Fisher Scientific) using an Applied Biosystems QuantStudio 6 Flex Real-Time PCR System.
A general note: Real-time PCR tracks product formation cycle by cycle.

The test system of experiment [2] is PASMCs. The experiment can be described thus: RT-qPCR gene expression in PASMCs. Conditions: hypoxia, BRD2889 5 uM.
From the text: Cell culture: Primary human pulmonary artery endothelial cells (PAECs) and human pulmonary artery smooth muscle cells (PASMCs) were purchased from Lonza (302-05A, CC-2581). Of note, the same two male donors were the source of all PAECs in the experiments shown. Two additional male donors were the source for all PASMCs in the experiments shown. Cells from these and any donors were characterized by flow cytometry for consistent expression of cell surface markers and by RNA (RT-qPCR) analysis of endothelial and smooth muscle gene expression. PAECs were cultured in EGM-2 media (CC-3121) along with supplements (CC-4133), and PASMCs were cultured in SmGM-2 culture media (Lonza, CC-3182) at 5% CO2 in a humidified incubator.
as §3

The test system of experiment [3] is PAECs. The experiment can be described thus: Cellular apoptosis, caspase-3/7 activity (Caspase-Glo 3/7) in PAECs. The protocol:
as §2
Cellular apoptosis: Caspase-3/7 activity was quantified using the Caspase-Glo 3/7 Assay (Promega), according to manufacturer's instructions. Caspase-3/7 activity was normalized to total protein content determined by BCA method (Thermo Fisher Scientific).

A further experiment concerns mitochondrial Complex 1. Description: Mitochondrial Complex 1 activity in PAECs. The procedure:
Measurement of mitochondrial complex activities: Complex 1 activity of isolated mitochondria were measured using Complex 1 Enzyme Activity Microplate assay kit (Abcam, ab109721) according to the manufacturer's protocol. These enzymes were captured within the wells of the microplate coated by the corresponding complex enzyme antibody, and activities were detected colorimetrically.

Experiment [4] has as its system PASMCs. The experiment can be described thus: BrdU proliferation in PASMCs. The following applies: IL-6/sIL-6R + hypoxia. The procedure:
as §1
BrdU growth assay: Cell proliferation was assayed relative to day 0 using a BrdU Cell Proliferation Assay Kit (#6813, Cell Signaling) according to the manufacturer's protocol after incubation for 2 h with BrdU.

[5] abbreviates: PAECs, IL-6/sIL-6R + hypoxia, BRD2889 1 uM.
The mark [6] stands for this setting: hypoxic PAECs with siRNA knockdown of ISCU.

For `COc1ccc(C#CC2CCCN(C(=O)/C=C/c3cc(OC)c(OC)c(OC)c3)C2=O)cc1` (centres unmarked) [BRD2889, (E)-3-((4-methoxyphenyl)ethynyl)-1-(3-(3,4,5-trimethoxyphenyl)acryloyl)piperidin-2-one], the values for the GSTP1 expression result in the experiment on ISCU (setting [5]) and with ISCU (hypoxic PAECs) were “without altering GSTP1 expression” and “did not affect GSTP1 expression”, respectively. In addition, the “ISCU expression (immunoblot)” value with ISCU (setting [5]) is listed as “reversed the decrease in ISCU expression; also recorded: reversed the IL-6/R+hypoxic decrease”. In the experiment with ISCU (hypoxic PAECs), the ISCU protein levels entry was “reversed hypoxia-dependent reduction of ISCU protein levels; also recorded: ISCU levels were increased; also recorded: reversed hypoxic alterations; also recorded: reversed these findings; also recorded: also reversed the hypoxia-induced reduction of ISCU”. For the same molecule, in the experiment with PAECs [1] (IL-6/sIL-6R + hypoxia), the “inflammatory gene transcripts (EDN1, VCAM1, ICAM1)” value is “normalized this upregulation”. The ISCU transcript entry is “fully reversing the hypoxic decrease of ISCU; also recorded: rescued by BRD2889” in the experiment with PAECs [1] (hypoxia 48 hrs, BRD2889 5 uM) and “unaffected by BRD2889” in the experiment with PASMCs [2]. Besides, the “expression of C43 genes MID2, BANP, AGTRAP” value with PAECs [1] (hypoxia 48 hrs, BRD2889 5 uM) is listed as “unaffected in hypoxia by BRD2889”. Besides, the mTOR transcript entry with PAECs [1] (hypoxia 48 hrs, BRD2889 5 uM) is given as “partially reversing the decrease of mTOR; also recorded: rescued by BRD2889”; with PASMCs [2], “no change in mTOR”. Moreover, the “apoptosis (caspase 3/7 activity)” value in the experiment with PAECs [3] (PAECs, IL-6/sIL-6R + hypoxia) is “reduced apoptosis; also recorded: reversing”; in the experiment on PAECs [3] (setting [6]), “did not reverse the hypoxic increase”; with PAECs [3] (hypoxic PAECs, BRD2889), “reversed the increase in apoptosis; also recorded: reversed hypoxic alterations”. For the same molecule, the “mitochondrial Complex 1 activity” value in the experiment with mitochondrial Complex 1 (PAECs, IL-6/sIL-6R + hypoxia) is recorded as “partially rescued mitochondrial Complex 1 activity; also recorded: reversing the IL-6/R+hypoxia-mediated decrease”; in the experiment with mitochondrial Complex 1 (hypoxic PAECs), “reversed the decrease; also recorded: reversed hypoxic alterations”; in the experiment on mitochondrial Complex 1 (setting [6]), “did not reverse the hypoxia-induced decrease”. Further, in the experiment on PASMCs [4], the proliferation result is “did not affect”.
